GI50 and TGI data for six molecules are collected here from PubChem BioAssay (NCI).

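Protocol summary: plate cells (96-well), add compound at 5 concentrations, incubate 48 h, interpolate endpoints linearly. GI50 = concentration required for 50% inhibition of growth. TGI marks complete inhibition of growth.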 Some results are limits rather than exact numbers.

Among the test systems are UACC-257 melanoma; HL-60(TB) leukemia; OVCAR-4 ovarian; EKVX NSCLC; HCT-116 colon; HCT-15 colon; SK-OV-3 ovarian; MDA-MB-231 breast; NCI-H226 lung; LOX IMVI melanoma.
Experiment in all cases: NCI anticancer screen, dose series, 48 h

On to `COc1ccc2c(CN3CCC(CO)CC3)cc3cc4c(cc3c2c1)OCO4`, for which the GI50 in the assay with UACC-257 melanoma is 0.156 µM; in the assay with HL-60(TB) leukemia, 0.286 µM; in the assay on OVCAR-4 ovarian, 0.438 µM; in the assay on EKVX NSCLC, 0.415 µM; in the assay on HCT-116 colon, 0.069 µM; with HCT-15 colon, 0.17 µM. Moreover, the GI50 in the assay on SK-OV-3 ovarian was 0.326 µM; in the assay on MDA-MB-231 breast it was 1.35 µM; in the assay on NCI-H226 lung, 0.225 µM; with LOX IMVI melanoma, 0.144 µM. Besides, the TGI stood at 0.393 µM with UACC-257 melanoma; 1.72 µM in the assay with HL-60(TB) leukemia; 11.4 µM in the assay with OVCAR-4 ovarian; 6.29 µM in the assay on EKVX NSCLC; 0.529 µM with HCT-116 colon; 3.49 µM in the assay on HCT-15 colon. For the same molecule, the TGI in the assay with SK-OV-3 ovarian was found to be 3.83 µM; with MDA-MB-231 breast it was 12.3 µM; in the assay on NCI-H226 lung, 0.56 µM; in the assay with LOX IMVI melanoma it was 0.49 µM.
`COc1ccc(/C=C/C(=O)/C=C(/C=C/c2ccc(OC)c(OC)c2)OB(F)F)cc1OC`: the GI50 is 1.76 µM in the assay on UACC-257 melanoma; 0.495 µM in the assay with HL-60(TB) leukemia; 1.86 µM in the assay on OVCAR-4 ovarian; 1.04 µM in the assay with EKVX NSCLC; 0.321 µM in the assay on HCT-116 colon; 0.286 µM in the assay on HCT-15 colon. Also, the GI50 was 2.98 µM in the assay on SK-OV-3 ovarian, 0.621 µM in the assay on MDA-MB-231 breast, 2 µM in the assay with NCI-H226 lung and 0.808 µM with LOX IMVI melanoma. Moreover, the TGI in the assay with UACC-257 melanoma is 5.55 µM; with HL-60(TB) leukemia it was 3.64 µM; in the assay with OVCAR-4 ovarian it was over 100 µM; in the assay with EKVX NSCLC, over 100 µM; in the assay on HCT-116 colon, 1.09 µM; in the assay with HCT-15 colon, 1.12 µM. For the same molecule, the TGI amounted to 12.1 µM in the assay on SK-OV-3 ovarian, 4.08 µM in the assay with MDA-MB-231 breast, 6.88 µM in the assay on NCI-H226 lung and 2.19 µM in the assay with LOX IMVI melanoma.
For the molecule `COc1cccc2c(Nc3ccc(C(=O)NCCNCCO)cc3)cc(-c3ccccc3)nc12`, the GI50 in the assay with UACC-257 melanoma is 39 µM; with HL-60(TB) leukemia, 26.6 µM; with OVCAR-4 ovarian it was 13.5 µM; with EKVX NSCLC, over 100 µM; in the assay with HCT-116 colon it was 34.6 µM; in the assay with HCT-15 colon, 12.2 µM. Moreover, the GI50 in the assay with SK-OV-3 ovarian is 86.7 µM; with MDA-MB-231 breast, 25.5 µM; with NCI-H226 lung it was 56.1 µM; in the assay on LOX IMVI melanoma, 3.17 µM. For the same molecule, the TGI was over 100 µM with UACC-257 melanoma; 99.2 µM with HL-60(TB) leukemia; 43.7 µM in the assay with OVCAR-4 ovarian; over 100 µM with EKVX NSCLC; over 100 µM in the assay with HCT-116 colon; over 100 µM in the assay with HCT-15 colon. Moreover, the TGI with SK-OV-3 ovarian was over 100 µM; in the assay on MDA-MB-231 breast it was 73.5 µM; in the assay with NCI-H226 lung it was over 100 µM; in the assay on LOX IMVI melanoma, 23.2 µM.
As for `COc1ccc(C(=O)c2cc(OC)c(OC)c(OC)c2)cc1/C=C/C(=O)c1ccc(O)cc1`, the GI50 in the assay on UACC-257 melanoma was 7.77 µM; with HL-60(TB) leukemia it was 0.693 µM; with OVCAR-4 ovarian it was 2.73 µM; in the assay with EKVX NSCLC, 4.55 µM; in the assay with HCT-116 colon, 1.58 µM; with HCT-15 colon, 2.15 µM. In addition, the GI50 in the assay with SK-OV-3 ovarian is 16.3 µM; with MDA-MB-231 breast it was 4.02 µM; with NCI-H226 lung it was 2.5 µM; with LOX IMVI melanoma it was 1.75 µM. In addition, the TGI with UACC-257 melanoma was 26.6 µM; in the assay with HL-60(TB) leukemia it was over 100 µM; with OVCAR-4 ovarian, 58.4 µM; with EKVX NSCLC, 19.4 µM; in the assay with HCT-116 colon it was 3.33 µM; with HCT-15 colon it was 7.42 µM. The TGI with SK-OV-3 ovarian was over 100 µM; in the assay with MDA-MB-231 breast, 24.9 µM; in the assay on NCI-H226 lung it was 7.78 µM; in the assay with LOX IMVI melanoma, 3.9 µM.
For `O=C(Nc1cccc(NS(=O)(=O)c2ccc(F)cc2)c1)c1ccc(-c2ccccc2)cc1`, the GI50 in the assay with UACC-257 melanoma was 2.76 µM; in the assay with HL-60(TB) leukemia, 3.37 µM; in the assay with OVCAR-4 ovarian, 3.72 µM; in the assay with EKVX NSCLC, 2.98 µM; in the assay with HCT-116 colon, 3.48 µM; in the assay with HCT-15 colon, 2.86 µM. In addition, the GI50 was 4.78 µM with SK-OV-3 ovarian, 3.61 µM with MDA-MB-231 breast, 3.22 µM in the assay on NCI-H226 lung and 2.54 µM in the assay with LOX IMVI melanoma. In addition, the TGI in the assay with UACC-257 melanoma is 9.93 µM; in the assay on HL-60(TB) leukemia it was 12.9 µM; in the assay with OVCAR-4 ovarian, over 100 µM; in the assay with EKVX NSCLC it was 65.3 µM; in the assay with HCT-116 colon, 13.4 µM; in the assay on HCT-15 colon, 18.3 µM. Moreover, the TGI was determined as 38.5 µM with SK-OV-3 ovarian, 18 µM with MDA-MB-231 breast, 24.3 µM with NCI-H226 lung and 6.99 µM in the assay on LOX IMVI melanoma.
For the molecule `O=C(Oc1cccc(Nc2ncnc3ccccc23)c1)c1ccccc1Cl`, the GI50 in the assay on UACC-257 melanoma is 26.6 µM; in the assay with HL-60(TB) leukemia, 79.4 µM; in the assay on OVCAR-4 ovarian, 48.9 µM; in the assay with EKVX NSCLC it was 7.4 µM; in the assay with HCT-116 colon it was 14.7 µM; in the assay on HCT-15 colon it was 18.9 µM. Besides, the GI50 with SK-OV-3 ovarian was 66.8 µM; in the assay with MDA-MB-231 breast, 14.3 µM; with NCI-H226 lung, 16.3 µM; with LOX IMVI melanoma, 15.8 µM. Also, the TGI was 57.1 µM in the assay with UACC-257 melanoma; over 100 µM with HL-60(TB) leukemia; over 100 µM in the assay on OVCAR-4 ovarian; 91.5 µM in the assay on EKVX NSCLC; 33 µM with HCT-116 colon; 46.6 µM in the assay on HCT-15 colon. The TGI with SK-OV-3 ovarian was over 100 µM; with MDA-MB-231 breast, 36 µM; in the assay with NCI-H226 lung, 43.8 µM; in the assay with LOX IMVI melanoma, 36.2 µM.
